Measurements: PubChem BioAssay (NCI)
“And” between values parts separate entries of the source, which are not always exact repeats. Identical values can stand only once.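 Dose response: 5 concentrations. Exposure: 48 h. Format: 96-well plates. Endpoint: linear interpolation; highest concentration if not reached. Abbreviation: GI50, concentration required for 50% inhibition of growth. TGI: total growth inhibition.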

Tests used:
Experiment in all cases: growth of human tumour cells (NCI), 48 h
[1] = tested on: A498 renal
[2] = tested on: CAKI-1 renal
[3] = tested on: HCT-15 colon
[4] = tested on: HT29 colon
[5] = tested on: KM12 colon
[6] = tested on: OVCAR-4 ovarian
[7] = tested on: OVCAR-8 ovarian
[8] = tested on: SNB-75 CNS
[9] = tested on: U251 CNS
[10] = tested on: UACC-62 melanoma

| Structure (SMILES) | GI50 [1] | TGI [1] | GI50 [2] [µM] | GI50 [3] | TGI [3] | GI50 [4] | TGI [4] | GI50 [5] [µM] | TGI [5] | GI50 [6] | TGI [6] | GI50 [7] | TGI [7] | GI50 [8] | TGI [8] | GI50 [9] | TGI [9] | GI50 [10] | TGI [10] | TGI [2] [µM] |
| --- | --- | --- | --- | --- | --- | --- | --- | --- | --- | --- | --- | --- | --- | --- | --- | --- | --- | --- | --- | --- |
| Cc1cnc(Nc2ccc(OCCN3CCCC3)cc2)nc1Nc1cccc(S(=O)(=O)NC(C)(C)C)c1 | 0.144 µM and 0.385 µM | 0.869 µM and 1.57 µM | 1.11 | 0.33 µM and 1.79 µM | 11.5 µM and > 10 µM | 0.0973 µM and 0.564 µM | 2.28 µM and 5.12 µM | 0.361 | 8.72 µM and > 10 µM | 0.671 µM and 0.967 µM | 21.3 µM and > 10 µM | 0.666 µM and 2.66 µM | 9.03 µM and > 10 µM | 0.0852 µM and 0.286 µM | 0.686 µM and 1.76 µM | 0.808 µM and 1.35 µM | 17.2 µM and > 10 µM | 0.491 µM and 1.92 µM | 8.14 µM and > 10 µM |  |
| COc1c(Sc2ccccc2)cc(Sc2ccccc2)c2cccnc12 |  | 82.3 µM |  |  | 49.3 µM |  | 71.1 µM |  | > 100 µM |  | 61.9 µM |  | > 100 µM |  | 66 µM |  | 70.7 µM |  | 63.2 µM | 70.7 |
| COC(=O)c1ccc(CN2C(=O)C(Cl)=C(Nc3ccc(OC)c(Cl)c3)C2=O)cc1 | > 50 µM | > 50 µM | 17.3 | 5.2 µM | 42.4 µM |  |  | 5.42 | > 50 µM |  |  | 23.8 µM | > 50 µM |  |  | 7.26 µM | 19.5 µM | 7.32 µM | 21.1 µM | > 50 |
| CCCCN(CC)c1ncnc2ccc(Br)cc12 | 10.2 µM | 23.6 µM | 8.7 | 22.1 µM | 54.7 µM |  |  | 15.3 | 31.6 µM | 22.1 µM | > 100 µM | 14 µM | 34.2 µM |  |  | 18.2 µM | 44.9 µM | 15.7 µM | 34.7 µM | 29 |
| COc1cc2c3c(ncc2c(OC)c1OC)-c1cc2c(cc1C3)OCO2 |  |  | 42.5 | 32.6 µM | > 100 µM |  |  | > 100 | > 100 µM | 54 µM | > 100 µM |  |  | > 100 µM | > 100 µM | 27.6 µM | > 100 µM | 22.4 µM | 65.9 µM | > 100 |
| COC(=O)[C@@]1(C)CCC[C@]2(C(=O)O)C3Cc4occc4[C@H](C)[C@@H]3CCC21 (some centres undefined) |  | > 100 µM |  |  |  |  | 91.8 µM |  | > 100 µM |  |  |  | > 100 µM |  |  |  | > 100 µM |  | > 100 µM |  |
| Cc1ccc(/C=C2/NC(=S)SC2=O)cc1 |  |  |  |  | 85.6 µM |  | > 100 µM |  | > 100 µM |  | > 100 µM |  | > 100 µM |  | 80.8 µM |  | > 100 µM |  |  | 51.1 |
| O=C(O)Cc1ccccc1CCc1ccccc1Cl |  | > 100 µM |  |  | > 100 µM |  | > 100 µM |  | > 100 µM |  | > 100 µM |  | > 100 µM |  | > 100 µM |  | > 100 µM |  |  | > 100 |
| COc1ccc([C@@H](O)c2cc(-c3ncnc4cc(N5CCOCC5)ccc34)c(F)cc2Cl)nn1 | 0.228 µM | 0.943 µM | 1.99 | 3.08 µM | 23.2 µM | 1.97 µM | 20.9 µM | 5.47 | 24.1 µM | 6.12 µM | > 100 µM | 5.92 µM | 78.4 µM | 0.371 µM | 11.4 µM | 6.22 µM | 53.8 µM |  |  | > 100 |
| COC(=O)[C@]1(C)CCC[C@@]2(C)[C@@H]3C[C@@H]4[C@H]5C[C@@]3(CC[C@@H]21)C[C@@]45C |  | 34.1 µM |  |  | 29.7 µM |  | 27.6 µM |  |  |  | 26.7 µM |  | 30.6 µM |  | 31.5 µM |  | 63.7 µM |  | 28 µM | 30 |
| CCN(CC)CCOc1c(OC)c(Br)cc2c(C)c(C(=O)OC)oc12 | 7.39 µM | 14.6 µM | 1.26 | 0.864 µM | 2.46 µM |  |  | 0.569 | 1.98 µM |  |  | 2.13 µM | 7.88 µM |  |  | 0.28 µM | 0.97 µM | 1.33 µM | 4.92 µM | 3.5 |
| Cc1ccc2sc3ccc(N)cc3c(=O)c2c1 |  | > 100 µM |  |  | > 100 µM |  | > 100 µM |  | > 100 µM |  | > 100 µM |  | > 100 µM |  |  |  | > 100 µM |  | > 100 µM | > 100 |
| CCCCNC(=O)Oc1ccc(/C(=C(/CC)Cc2ccccc2)c2ccc(OCCN3CCCCCC3)cc2)cc1 |  |  | 19.3 | 16.4 µM | 36.3 µM | 18.1 µM | 36.3 µM | 31.7 | > 100 µM | 19.2 µM | 51.3 µM | 19.1 µM | 36.6 µM | > 100 µM | > 100 µM | 18.7 µM | 35 µM | 19.6 µM | 38 µM | 44.7 |
